The values that follow come from patent US12077503B2, “Substituted cyclic amides and their use as herbicides” (FMC CORPORATION, priority 2015, dated 2024).

Molecules are shown by their SMILES. Read-outs that look alike come from different tables or passages of the source.

Assay type in all cases: in vivo
For assay [1], the system named is ryegrass, Italian (Italian ryegrass, Lolium multiflorum). Put plainly: Test A postemergence. To be noted: Lolium multiflorum, post-emergence, 240 h; for pest or weed control at 125 g/ha: 125 g ai/ha. In outline: (§1)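 Compounds were formulated in a non-phytotoxic solvent mixture with surfactant and applied as a preemergence directed soil spray after seeding, or sprayed postemergence over plants 2 to 10 cm tall at the one- to two-leaf stage. Evaluation after about 10 d compared treated with untreated controls, using a scale from 0 (no effect) to 100 (complete control).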

Assay [2] has as its system wheat (Triticum aestivum). Nature of the assay: Test A postemergence. As to conditions: Triticum aestivum, post-emergence, 240 h; for plant injury at 125 g/ha: 125 g ai/ha. In outline: as §1
The test system of assay [3] is barnyardgrass (Echinochloa crus-galli). Nature of the assay: Test A postemergence. To be noted: Echinochloa crus-galli, post-emergence, 240 h; for pest or weed control at 125 g/ha: 125 g ai/ha. In outline: as §1
For assay [4], the system named is giant foxtail (Setaria faberii). Put plainly: Test A postemergence. To be noted: Setaria faberi, post-emergence, 240 h; for pest or weed control at 125 g/ha: 125 g ai/ha. The gist of the method: as §1
Another assay concerns Kochia (Kochia scoparia). Nature of the assay: Test A postemergence. As to conditions: Bassia scoparia, post-emergence, 240 h; for pest or weed control at 125 g/ha: 125 g ai/ha. In outline: as §1
The subject of assay [5] is Galium (catchweed bedstraw, Galium aparine). Nature of the assay: Test A postemergence. To be noted: Galium, post-emergence, 240 h; for pest or weed control at 125 g/ha: 125 g ai/ha. The gist of the method:
as §1

Assay [6] concerns pigweed (Amaranthus retroflexus). Put plainly: Test A postemergence. As to conditions: Amaranthus retroflexus, post-emergence, 240 h; for pest or weed control at 125 g/ha: 125 g ai/ha. In outline:
as §1

For the next assay, the system named is corn (Zea mays). Nature of the assay: Test A postemergence. As to conditions: Zea mays, post-emergence, 240 h; for Corn plant response rating (crop injury, 0 = no effect, 100 = complete kill) at 125 g/ha: postemergence, visual injury after approximately 10 d. The gist of the method:
as §1

Assay [7] deals with ragweed (common ragweed, Ambrosia elatior). Put plainly: Test A postemergence. As to conditions: Ambrosia artemisiifolia, post-emergence, 240 h; for pest or weed control at 125 g/ha: 125 g ai/ha. In outline: as §1
The subject of assay [8] is barnyardgrass (Echinochloa crus-galli). Nature of the assay: Test B flooded paddy test. To be noted: Echinochloa crus-galli, 250 g ai/ha, Flood, read-out: Barnyardgrass plant response rating. The gist of the method: (§2)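 2-leaf plants; pots flooded 3 cm over soil; cpd added to paddy water; depth held; greenhouse 13–15 d; visual rating vs controls, 0 = no effect, 100 = complete control.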

A further assay concerns rice (Oryra sativa). Nature of the assay: Test B flooded paddy test. As to conditions: Oryza sativa, 250 g ai/ha, Flood, read-out: Rice plant response rating. The gist of the method:
as §2

Assay [9] has as its system sedge, umbrella (small-flower umbrella sedge, Cyperus difformis). Nature of the assay: Test B flooded paddy test. As to conditions: Cyperus difformis, Flood, 250 g ai/ha. In outline: as §2
The test system of assay [10] is ducksalad (Heteranthera limosa). Put plainly: Test B flooded paddy test. As to conditions: Heteranthera limosa, 250 g ai/ha, Flood, read-out: Ducksalad plant response rating. The gist of the method:
as §2

For assay [11], the system named is blackgrass (Alopecurus myosuroides). Nature of the assay: Test A postemergence. As to conditions: Alopecurus myosuroides, post-emergence, 240 h, 125 g ai/ha, postemergence; visual injury after approximately 10 d; 0 to 100 scale (0 no effect, 100 complete control); read-out: Plant response rating, Blackgrass. The gist of the method:
as §1

Where [12] appears, read: 0 to 100 scale where 0 is no effect and 100 is complete control.
[13] abbreviates: postemergence, visual injury after approximately 10 d, 0 to 100 scale (0 no effect, 100 complete control), read-out: Plant response rating, Ryegrass, Italian.
Setting [14] is: postemergence, visual injury after approximately 10 d, 0 to 100 scale (0 no effect, 100 complete control), read-out: Plant response rating, Barnyardgrass.
Setting [15] is: postemergence, visual injury after approximately 10 d, 0 to 100 scale (0 no effect, 100 complete control), read-out: Plant response rating, Foxtail, Giant.
Where [16] appears, read: postemergence, visual injury after approximately 10 d, 0 to 100 scale (0 no effect, 100 complete control), read-out: Plant response rating, Galium.
[17] abbreviates: postemergence, visual injury after approximately 10 d, 0 to 100 scale (0 no effect, 100 complete control), read-out: Plant response rating, Pigweed.
Setting [18] is: 125 g ai/ha, 0 to 100 scale (0 no effect, 100 complete control).
Setting [19] is: postemergence, visual injury after approximately 10 d, 0 to 100 scale (0 no effect, 100 complete control), read-out: Plant response rating, Ragweed.
The mark [20] stands for this setting: scale of 0 to 100 where 0 is no effect and 100 is complete control.
Setting [21] is: scale of 0 to 100 where 0 is no effect and 100 is complete control, read-out: Sedge, Umbrella plant response rating.

As to `O=C1NC[C@H](c2ccc(OC(F)F)cc2)[C@H]1C(=O)Nc1ccc(F)cc1F` [Compound 1325], the pest or weed control at 125 g/ha stood at 0% in assay [1] (Postemergence, visual rating about 10 d after treatment, read-out: Ryegrass, Italian plant response rating (0 to 100 scale)); 90% in [3] (Postemergence, visual rating about 10 d after treatment, read-out: Barnyardgrass plant response rating (0 to 100 scale, 0 no effect, 100 complete control)); 80% in assay [4] (Postemergence, visual rating about 10 d after treatment, read-out: Foxtail, Giant plant response rating (0 to 100 scale)); 70% in the assay on Kochia (Kochia scoparia) (Postemergence, visual rating about 10 d after treatment, read-out: Kochia plant response rating (0 to 100 scale)); 80% in [5] (Postemergence, visual rating about 10 d after treatment, read-out: Galium plant response rating (0 to 100 scale)); 70% in [6] (Postemergence, visual rating about 10 d after treatment, read-out: Pigweed plant response rating (0 to 100 scale)). The pest or weed control at 125 g/ha in assay [7] (Postemergence, visual rating about 10 d after treatment, read-out: Ragweed plant response rating (0 to 100 scale)) amounted to 0%. The pest or weed control at 500 g/ha in [1] (Postemergence, 500 g ai/ha, visual injury, 0 to 100 scale (0 no effect, 100 complete control), approx. 10 d, read-out: Plant response rating, Ryegrass, Italian) came out at 0%; in assay [3] (Postemergence, 500 g ai/ha, visual injury, 0 to 100 scale (0 no effect, 100 complete control), approx. 10 d, read-out: Plant response rating, Barnyardgrass), 90%; in assay [4] (Postemergence, 500 g ai/ha, visual injury, 0 to 100 scale (0 no effect, 100 complete control), approx. 10 d, read-out: Plant response rating, Foxtail, Giant), 90%; in the assay on Kochia (Kochia scoparia) (Postemergence, 500 g ai/ha, visual injury, 0 to 100 scale (0 no effect, 100 complete control), approx. 10 d, read-out: Plant response rating, Kochia), 80%; in [5] (Postemergence, 500 g ai/ha, visual injury, 0 to 100 scale (0 no effect, 100 complete control), approx. 10 d, read-out: Plant response rating, Galium), 90%; in assay [6] (Postemergence, 500 g ai/ha, visual injury, 0 to 100 scale (0 no effect, 100 complete control), approx. 10 d, read-out: Plant response rating, Pigweed) it was 90%. The pest or weed control at 500 g/ha in [7] (Postemergence, 500 g ai/ha, visual injury, 0 to 100 scale (0 no effect, 100 complete control), approx. 10 d, read-out: Plant response rating, Ragweed) stood at 0%. Also, the plant injury at 125 g/ha in [2] (Postemergence, visual rating about 10 d after treatment, read-out: Wheat plant response rating (0 to 100 scale)) worked out at 0%; with corn (Zea mays) (125 g ai/ha, Postemergence, visual rating about 10 d after treatment, read-out: Corn plant response rating (0 to 100 scale)), 0%. Besides, the plant injury at 500 g/ha in [2] (Postemergence, 500 g ai/ha, visual injury, 0 to 100 scale (0 no effect, 100 complete control), approx. 10 d, read-out: Plant response rating, Wheat) amounted to 0%. In the assay on corn (Zea mays) (Postemergence, 500 g ai/ha, visual injury, 0 to 100 scale (0 no effect, 100 complete control), approx. 10 d), this compound yielded a Corn plant response rating (crop injury, 0 = no effect, 100 = complete kill) at 500 g/ha of 50%. Further, the pest or weed control at 250 g/ha in assay [8] (setting [12]) was found to be 15%; in the assay on rice (Oryra sativa) (setting [12]) it was 0%; in [9] (360 h, visually evaluated after 13 to 15 d, read-out: Plant response rating, Sedge, Umbrella (0 to 100 scale where 0 is no effect and 100 is complete control)), 0%; in assay [10] (setting [12]), 100%.
For the compound `CN1C[C@H](c2ccc(OC(F)F)cc2)[C@@H](C(=O)Nc2ccccc2S(C)(=O)=O)C1=O` [Compound 788], the pest or weed control at 125 g/ha in assay [1] (setting [13]) came to 20%; in assay [3] (setting [14]) it was 80%; in assay [4] (setting [15]) it was 70%; with Kochia (Kochia scoparia) (postemergence, visual injury after approximately 10 d, 0 to 100 scale (0 no effect, 100 complete control), read-out: Plant response rating, Kochia), 40%; in assay [5] (setting [16]), 50%; in assay [6] (setting [17]), 60%. Moreover, the pest or weed control at 125 g/ha in assay [7] (setting [19]) is 40%; in assay [11], 20%. For the same compound, the Corn plant response rating (crop injury, 0 = no effect, 100 = complete kill) at 125 g/ha in the assay with corn (Zea mays) (setting [18]) was 20%. The pest or weed control at 250 g/ha in [8] (setting [20]) came out at 20%; in the assay with rice (Oryra sativa) (setting [20]), 0%; in assay [9] (setting [21]) it was 0%; in [10] (setting [20]), 60%.
As to `CN1C[C@H](c2nccs2)[C@@H](C(=O)Nc2ccccc2F)C1=O` [Compound 773], the pest or weed control at 125 g/ha in [1] (setting [13]), in assay [3] (setting [14]), in assay [4] (setting [15]), in assay [5] (setting [16]), in [6] (setting [17]) and in assay [7] (setting [19]) was 0% each time. Further, the pest or weed control at 125 g/ha in assay [11] is 0%. For the same compound, the plant injury at 125 g/ha in assay [2] (postemergence, visual injury after approximately 10 d, 0 to 100 scale (0 no effect, 100 complete control), read-out: Plant response rating, Wheat) was determined as 0%. Further, in the assay on corn (Zea mays) (setting [18]), the Corn plant response rating (crop injury, 0 = no effect, 100 = complete kill) at 125 g/ha came to 0%. The pest or weed control at 250 g/ha (in [8] (setting [20]); with rice (Oryra sativa) (setting [20]); in [9] (setting [21]); in [10] (setting [20])) was 0% throughout.
